Measurements as given in patent US10456407B2, “Combination therapy for treating cancer” (Epizyme, Inc., priority 2015, dated 2019).

System: WSU-DLCL2 cells
Experiment: RT2 Glucocorticoid signaling PCR array, WSU-DLCL2 (WSU) cell line (Table 4c)
Type: cell-based

CCN(c1cc(-c2ccc(CN3CCOCC3)cc2)cc(C(=O)NCc2c(C)cc(C)[nH]c2=O)c1C)C1CCOCC1 [Compound 44]
Ct Values, ACTB (gene ACTB): 15.450
ΔCT (B2M), ACTB (gene ACTB): −4.235
Ct Values, ADARB1 (gene ADARB1): 25.386
ΔCT (B2M), ADARB1 (gene ADARB1): 5.701
ΔΔCT, ADARB1 (gene ADARB1, compared to DMSO): −1.165
Ct Values, AFF1 (gene AFF1): 27.925
ΔCT (B2M), AFF1 (gene AFF1): 8.240
ΔΔCT, AFF1 (gene AFF1, compared to DMSO): −0.413
Ct Values, AK2 (gene AK2): 21.365
ΔCT (B2M), AK2 (gene AK2): 1.680
ΔΔCT, AK2 (gene AK2, compared to DMSO): 0.486
Ct Values, AMPD3 (gene AMPD3): 27.162
ΔCT (B2M), AMPD3 (gene AMPD3): 7.477
ΔΔCT, AMPD3 (gene AMPD3, compared to DMSO): −1.540
Ct Values, ANGPTL4 (gene ANGPTL4): 30.487
ΔCT (B2M), ANGPTL4 (gene ANGPTL4): 10.802
ΔΔCT, ANGPTL4 (gene ANGPTL4, compared to DMSO): −1.192
Ct Values, ANXA4 (gene ANXA4): 24.659
ΔCT (B2M), ANXA4 (gene ANXA4): 4.974
ΔΔCT, ANXA4 (gene ANXA4, compared to DMSO): −3.312
Ct Values, AQP1 (gene AQP1): 33.645
ΔCT (B2M), AQP1 (gene AQP1): 13.960
Ct Values, ARID68 (gene ARID68): 26.126
ΔCT (B2M), ARID68 (gene ARID68): 6.441
ΔΔCT, ARID68 (gene ARID68, compared to DMSO): −0.353
Ct Values, ASPH (gene ASPH): 22.415
ΔΔCT, ASPH (gene ASPH, compared to DMSO): −0.105
Ct Values, ATF4 (gene ATF4): 20.470
ΔCT (B2M), ATF4 (gene ATF4): 0.785
ΔΔCT, ATF4 (gene ATF4, compared to DMSO): 0.361
Ct Values, B2M (gene B2M (normaliser)): 19.685
ΔCT (B2M), B2M (gene B2M (normaliser)): 0.000
Ct Values, BCL6 (gene BCL6): 20.795
ΔCT (B2M), BCL6 (gene BCL6): 1.110
ΔΔCT, BCL6 (gene BCL6, compared to DMSO): −0.394
Ct Values, CEBPA (gene CEBPA): 27.014
ΔCT (B2M), CEBPA (gene CEBPA): 7.329
ΔΔCT, CEBPA (gene CEBPA, compared to DMSO): −1.659
Ct Values, CEBPB (gene CEBPB): 26.770
ΔCT (B2M), CEBPB (gene CEBPB): 7.085
ΔΔCT, CEBPB (gene CEBPB, compared to DMSO): 1.269
Ct Values, CREB1 (gene CREB1): 23.413
ΔCT (B2M), CREB1 (gene CREB1): 3.728
ΔΔCT, CREB1 (gene CREB1, compared to DMSO): 0.008
Ct Values, CREB3 (gene CREB3): 25.459
ΔCT (B2M), CREB3 (gene CREB3): 5.774
ΔΔCT, CREB3 (gene CREB3, compared to DMSO): −0.085
Ct Values, CREB3L4 (gene CREB3L4): 24.392
ΔCT (B2M), CREB3L4 (gene CREB3L4): 4.707
ΔΔCT, CREB3L4 (gene CREB3L4, compared to DMSO): −0.915
Ct Values, CYB561 (gene CYB561): 31.478
ΔCT (B2M), CYB561 (gene CYB561): 11.793
ΔΔCT, CYB561 (gene CYB561, compared to DMSO): −5.631
Ct Values, DDIT4 (gene DDIT4): 24.404
ΔCT (B2M), DDIT4 (gene DDIT4): 4.719
ΔΔCT, DDIT4 (gene DDIT4, compared to DMSO): −0.060
Ct Values, DUSP1 (gene DUSP1): 27.284
ΔCT (B2M), DUSP1 (gene DUSP1): 7.599
ΔΔCT, DUSP1 (gene DUSP1, compared to DMSO): 1.370
Ct Values, EDN1 (gene EDN1): 26.349
ΔCT (B2M), EDN1 (gene EDN1): 6.664
Ct Values, EHD3 (gene EHD3): 24.270
ΔCT (B2M), EHD3 (gene EHD3): 4.585
ΔΔCT, EHD3 (gene EHD3, compared to DMSO): −5.639
Ct Values, ERRFI1 (gene ERRFI1): 32.771
ΔCT (B2M), ERRFI1 (gene ERRFI1): 13.086
Ct Values, FK8PS (gene FK8PS): 23.267
ΔCT (B2M), FK8PS (gene FK8PS): 3.582
ΔΔCT, FK8PS (gene FK8PS, compared to DMSO): 0.159
Ct Values, FOSL2 (gene FOSL2): 34.140
ΔCT (B2M), FOSL2 (gene FOSL2): 14.455
ΔΔCT, FOSL2 (gene FOSL2, compared to DMSO): 2.796
Ct Values, GAPDH (gene GAPDH): 17.275
ΔCT (B2M), GAPDH (gene GAPDH): −2.410
Ct Values, GDPD1 (gene GDPD1): 27.494
ΔCT (B2M), GDPD1 (gene GDPD1): 7.809
ΔΔCT, GDPD1 (gene GDPD1, compared to DMSO): −1.112
Ct Values, GHRHR (gene GHRHR): 39.957
ΔCT (B2M), GHRHR (gene GHRHR): 20.272
ΔΔCT, GHRHR (gene GHRHR, compared to DMSO): 5.086
Ct Values, GLUL (gene GLUL): 28.395
ΔCT (B2M), GLUL (gene GLUL): 8.710
Ct Values, GOT1 (gene GOT1): 23.827
ΔCT (B2M), GOT1 (gene GOT1): 4.142
ΔΔCT, GOT1 (gene GOT1, compared to DMSO): 0.708
Ct Values, H6PD (gene H6PD): 25.976
ΔCT (B2M), H6PD (gene H6PD): 6.291
ΔΔCT, H6PD (gene H6PD, compared to DMSO): −0.619
Ct Values, HNRPLL (gene HNRPLL): 24.170
ΔCT (B2M), HNRPLL (gene HNRPLL): 4.485
ΔΔCT, HNRPLL (gene HNRPLL, compared to DMSO): −0.037
Ct Values, HPRT1 (gene HPRT1): 22.793
ΔCT (B2M), HPRT1 (gene HPRT1): 3.108
Ct Values, IL1RN (gene IL1RN): 28.388
ΔCT (B2M), IL1RN (gene IL1RN): 8.703
Ct Values, IL6R (gene IL6R): 33.814
ΔCT (B2M), IL6R (gene IL6R): 14.129
Ct Values, IL10 (gene IL10): 34.229
ΔCT (B2M), IL10 (gene IL10): 14.544
Ct Values, KLF9 (gene KLF9): 28.881
ΔCT (B2M), KLF9 (gene KLF9): 9.196
ΔΔCT, KLF9 (gene KLF9, compared to DMSO): −2.195
Ct Values, KLF13 (gene KLF13): 23.800
ΔCT (B2M), KLF13 (gene KLF13): 4.115
ΔΔCT, KLF13 (gene KLF13, compared to DMSO): −0.974
Ct Values, LOX (gene LOX): 34.399
ΔCT (B2M), LOX (gene LOX): 14.714
ΔΔCT, LOX (gene LOX, compared to DMSO): −0.102
